Measured values published in ChEMBL document CHEMBL5465560, “Selectivity Literature for EUbOPEN Chemogenomic Library” (2024).

Columns and labels:
[1] = biological target: T1, Serine/threonine-protein kinase TBK1 (Homo sapiens) (UniProt Q9UHD2); assay: Selectivity interaction (KinomeScan (DiscoverX)) EUB0000695a TBK1; conditions: at 100 nM
T1 sequence (whole entry): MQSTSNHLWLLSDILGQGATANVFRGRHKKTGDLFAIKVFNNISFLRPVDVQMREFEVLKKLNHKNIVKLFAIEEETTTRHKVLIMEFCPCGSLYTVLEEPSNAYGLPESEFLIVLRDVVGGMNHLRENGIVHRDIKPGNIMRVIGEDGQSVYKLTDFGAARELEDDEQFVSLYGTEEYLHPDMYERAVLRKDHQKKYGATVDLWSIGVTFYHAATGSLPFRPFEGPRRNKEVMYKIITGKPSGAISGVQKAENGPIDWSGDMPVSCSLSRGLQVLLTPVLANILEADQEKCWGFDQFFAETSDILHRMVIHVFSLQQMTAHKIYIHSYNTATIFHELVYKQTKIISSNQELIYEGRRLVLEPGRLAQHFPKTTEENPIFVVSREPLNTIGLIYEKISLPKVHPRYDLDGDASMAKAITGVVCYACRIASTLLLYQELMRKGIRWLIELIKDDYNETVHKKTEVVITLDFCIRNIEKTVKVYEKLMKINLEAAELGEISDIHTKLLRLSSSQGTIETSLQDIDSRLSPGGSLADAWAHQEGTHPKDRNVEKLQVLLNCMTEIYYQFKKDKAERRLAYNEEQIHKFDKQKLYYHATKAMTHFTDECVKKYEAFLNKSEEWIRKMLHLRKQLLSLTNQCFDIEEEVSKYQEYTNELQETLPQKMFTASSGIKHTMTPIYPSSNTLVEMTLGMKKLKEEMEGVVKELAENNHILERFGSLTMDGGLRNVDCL

[2] = biological target: Protein kinase C delta type (Homo sapiens) (UniProt Q05655); assay: Selectivity interaction (KinomeScan (DiscoverX)) EUB0001079a PRKCD; conditions: at 1 µM
Sequence of Protein kinase C delta type (Homo sapiens) (Q05655 whole entry, looked up, canonical isoform): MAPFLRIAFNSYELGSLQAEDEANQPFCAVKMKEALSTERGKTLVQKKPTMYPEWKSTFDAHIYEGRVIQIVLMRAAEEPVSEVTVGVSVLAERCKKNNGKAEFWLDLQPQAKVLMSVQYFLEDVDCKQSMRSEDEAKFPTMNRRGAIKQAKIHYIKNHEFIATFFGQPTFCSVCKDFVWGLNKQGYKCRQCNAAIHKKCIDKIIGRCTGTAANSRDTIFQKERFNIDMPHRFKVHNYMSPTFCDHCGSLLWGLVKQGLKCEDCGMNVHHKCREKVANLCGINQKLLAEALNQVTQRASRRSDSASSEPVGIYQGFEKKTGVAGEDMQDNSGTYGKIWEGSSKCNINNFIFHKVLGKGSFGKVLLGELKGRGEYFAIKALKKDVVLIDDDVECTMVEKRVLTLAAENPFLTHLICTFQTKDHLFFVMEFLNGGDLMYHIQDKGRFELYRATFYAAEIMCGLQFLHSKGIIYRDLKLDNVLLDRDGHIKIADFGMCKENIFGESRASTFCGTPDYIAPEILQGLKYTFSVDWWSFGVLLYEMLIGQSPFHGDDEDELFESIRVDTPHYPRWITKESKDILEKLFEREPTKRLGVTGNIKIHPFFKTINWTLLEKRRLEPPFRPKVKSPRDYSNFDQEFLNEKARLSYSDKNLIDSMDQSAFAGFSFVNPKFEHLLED

[3] = biological target: Phosphatidylinositol 4,5-bisphosphate 3-kinase catalytic subunit beta isoform (Homo sapiens) (UniProt P42338); assay: Selectivity interaction (KinomeScan (DiscoverX)) EUB0000666a PIK3CB; conditions: at 10 µM
Sequence of Phosphatidylinositol 4,5-bisphosphate 3-kinase catalytic subunit beta isoform (Homo sapiens) (P42338 whole entry, looked up, canonical isoform): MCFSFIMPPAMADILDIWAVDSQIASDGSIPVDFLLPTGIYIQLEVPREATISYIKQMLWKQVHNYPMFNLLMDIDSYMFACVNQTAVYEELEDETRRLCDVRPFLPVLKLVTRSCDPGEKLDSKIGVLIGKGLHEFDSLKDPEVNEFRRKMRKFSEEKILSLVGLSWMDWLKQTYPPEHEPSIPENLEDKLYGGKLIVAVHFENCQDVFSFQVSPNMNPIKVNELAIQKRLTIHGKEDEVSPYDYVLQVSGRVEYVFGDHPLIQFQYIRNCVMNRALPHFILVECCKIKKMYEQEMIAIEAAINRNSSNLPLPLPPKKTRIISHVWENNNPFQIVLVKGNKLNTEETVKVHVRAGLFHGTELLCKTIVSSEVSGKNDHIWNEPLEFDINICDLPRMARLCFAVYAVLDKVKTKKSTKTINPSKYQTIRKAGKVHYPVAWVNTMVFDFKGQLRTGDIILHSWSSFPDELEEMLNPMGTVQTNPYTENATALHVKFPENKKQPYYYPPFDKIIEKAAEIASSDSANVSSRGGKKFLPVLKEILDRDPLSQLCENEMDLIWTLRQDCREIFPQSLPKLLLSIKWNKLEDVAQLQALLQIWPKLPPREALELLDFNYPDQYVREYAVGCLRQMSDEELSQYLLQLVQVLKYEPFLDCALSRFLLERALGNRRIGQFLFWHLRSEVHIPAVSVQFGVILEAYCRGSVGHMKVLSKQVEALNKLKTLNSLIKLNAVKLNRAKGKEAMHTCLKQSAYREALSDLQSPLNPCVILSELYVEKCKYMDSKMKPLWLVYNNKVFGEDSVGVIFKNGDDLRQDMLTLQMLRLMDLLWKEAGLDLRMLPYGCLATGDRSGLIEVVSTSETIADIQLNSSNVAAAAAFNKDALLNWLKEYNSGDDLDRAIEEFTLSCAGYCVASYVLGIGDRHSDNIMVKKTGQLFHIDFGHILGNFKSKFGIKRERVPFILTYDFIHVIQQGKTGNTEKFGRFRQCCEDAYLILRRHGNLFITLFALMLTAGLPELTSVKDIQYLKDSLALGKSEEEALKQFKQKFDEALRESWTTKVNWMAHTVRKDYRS

[4] = biological target: T2, Serine/threonine-protein kinase 17A (Homo sapiens) (UniProt Q9UEE5); assay: Selectivity interaction (KinomeScan (DiscoverX)) EUB0000666a STK17A; conditions: at 10 µM
T2 sequence (whole entry): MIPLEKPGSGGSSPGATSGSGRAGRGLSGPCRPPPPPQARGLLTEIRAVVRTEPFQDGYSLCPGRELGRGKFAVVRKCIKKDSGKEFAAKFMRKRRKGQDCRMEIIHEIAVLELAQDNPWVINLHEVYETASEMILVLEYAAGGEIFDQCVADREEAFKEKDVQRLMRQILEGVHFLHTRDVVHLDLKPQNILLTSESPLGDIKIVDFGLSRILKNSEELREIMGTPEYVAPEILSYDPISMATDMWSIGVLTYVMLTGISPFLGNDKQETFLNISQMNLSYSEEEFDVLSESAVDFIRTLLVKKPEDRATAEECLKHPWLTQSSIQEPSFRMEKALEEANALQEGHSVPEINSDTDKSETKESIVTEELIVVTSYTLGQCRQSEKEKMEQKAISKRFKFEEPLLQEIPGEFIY

Focal adhesion kinase 1 = Focal adhesion kinase 1 (Homo sapiens, UniProt Q05397); assay: Selectivity interaction (KinomeScan (DiscoverX)) EUB0001049a PTK2; conditions: at 1 µM
Sequence of Focal adhesion kinase 1 (Q05397 2-1052 limits assumed): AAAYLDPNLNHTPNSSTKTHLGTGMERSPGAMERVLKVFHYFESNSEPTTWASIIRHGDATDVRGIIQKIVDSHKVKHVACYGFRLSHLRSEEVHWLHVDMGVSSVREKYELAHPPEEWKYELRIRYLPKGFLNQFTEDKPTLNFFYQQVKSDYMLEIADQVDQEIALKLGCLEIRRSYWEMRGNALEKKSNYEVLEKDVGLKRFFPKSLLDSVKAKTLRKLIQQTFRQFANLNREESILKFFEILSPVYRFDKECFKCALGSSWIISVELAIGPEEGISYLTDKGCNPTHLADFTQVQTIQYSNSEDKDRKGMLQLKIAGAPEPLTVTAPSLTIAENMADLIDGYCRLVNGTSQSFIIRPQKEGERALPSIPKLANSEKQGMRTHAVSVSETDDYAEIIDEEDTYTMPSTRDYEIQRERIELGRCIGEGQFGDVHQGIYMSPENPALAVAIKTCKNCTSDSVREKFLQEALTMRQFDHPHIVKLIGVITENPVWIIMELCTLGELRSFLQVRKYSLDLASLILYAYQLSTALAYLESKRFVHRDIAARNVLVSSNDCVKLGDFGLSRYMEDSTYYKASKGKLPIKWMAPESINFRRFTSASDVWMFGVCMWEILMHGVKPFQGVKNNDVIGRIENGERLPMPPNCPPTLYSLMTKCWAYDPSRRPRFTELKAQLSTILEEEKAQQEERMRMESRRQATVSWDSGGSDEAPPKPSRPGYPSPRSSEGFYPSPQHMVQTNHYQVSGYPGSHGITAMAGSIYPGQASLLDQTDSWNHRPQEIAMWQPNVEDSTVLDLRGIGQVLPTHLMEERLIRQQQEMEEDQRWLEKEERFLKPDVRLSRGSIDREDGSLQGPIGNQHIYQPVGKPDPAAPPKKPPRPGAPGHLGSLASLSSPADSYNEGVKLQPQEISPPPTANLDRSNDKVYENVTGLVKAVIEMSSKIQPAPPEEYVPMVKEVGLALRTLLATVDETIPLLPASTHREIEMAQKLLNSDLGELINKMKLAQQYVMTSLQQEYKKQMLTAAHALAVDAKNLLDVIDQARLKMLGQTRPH

[5] = biological target: Calcium/calmodulin-dependent protein kinase kinase 2 (Homo sapiens) (UniProt Q96RR4); assay: Selectivity interaction (KinomeScan (DiscoverX)) EUB0000607a CAMKK2; conditions: at 10 µM
Sequence of Calcium/calmodulin-dependent protein kinase kinase 2 (Homo sapiens) (Q96RR4 2-588 limits assumed): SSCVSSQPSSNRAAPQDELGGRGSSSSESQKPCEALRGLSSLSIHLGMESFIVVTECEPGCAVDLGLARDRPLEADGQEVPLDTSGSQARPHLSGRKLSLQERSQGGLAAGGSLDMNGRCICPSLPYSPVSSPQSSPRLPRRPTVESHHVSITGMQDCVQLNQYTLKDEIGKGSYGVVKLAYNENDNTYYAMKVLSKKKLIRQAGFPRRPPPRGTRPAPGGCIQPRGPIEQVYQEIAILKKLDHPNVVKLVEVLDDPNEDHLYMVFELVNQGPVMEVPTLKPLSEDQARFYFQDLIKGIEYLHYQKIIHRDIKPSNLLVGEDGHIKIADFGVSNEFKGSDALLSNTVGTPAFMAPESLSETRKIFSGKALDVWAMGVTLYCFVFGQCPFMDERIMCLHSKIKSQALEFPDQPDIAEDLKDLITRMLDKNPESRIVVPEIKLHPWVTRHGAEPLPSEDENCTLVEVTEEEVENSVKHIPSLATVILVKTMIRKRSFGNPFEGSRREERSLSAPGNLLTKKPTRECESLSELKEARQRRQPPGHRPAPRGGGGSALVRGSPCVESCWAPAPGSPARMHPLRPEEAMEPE

[6] = biological target: Tyrosine-protein kinase FRK (Homo sapiens) (UniProt P42685); assay: Selectivity interaction (SelectScreen profiling (Invitrogen)) EUB0000607a FRK; conditions: at 2 µM
Sequence of Tyrosine-protein kinase FRK (Homo sapiens) (P42685 whole entry): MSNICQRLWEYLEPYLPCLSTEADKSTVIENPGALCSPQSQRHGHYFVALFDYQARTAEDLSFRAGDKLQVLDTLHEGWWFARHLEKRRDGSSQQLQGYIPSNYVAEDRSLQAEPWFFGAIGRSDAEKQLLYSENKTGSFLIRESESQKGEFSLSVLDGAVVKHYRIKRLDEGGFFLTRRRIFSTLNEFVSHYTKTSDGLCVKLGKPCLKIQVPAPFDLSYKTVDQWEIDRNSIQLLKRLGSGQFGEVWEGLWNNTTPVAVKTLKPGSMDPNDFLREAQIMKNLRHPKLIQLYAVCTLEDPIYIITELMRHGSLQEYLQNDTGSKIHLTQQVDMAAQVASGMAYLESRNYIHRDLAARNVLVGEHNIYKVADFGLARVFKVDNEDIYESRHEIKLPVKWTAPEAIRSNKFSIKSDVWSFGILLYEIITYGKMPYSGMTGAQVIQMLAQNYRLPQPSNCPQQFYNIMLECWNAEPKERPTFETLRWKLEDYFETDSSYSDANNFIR

[7] = biological target: [Pyruvate dehydrogenase (acetyl-transferring)] kinase isozyme 1, mitochondrial (Homo sapiens, UniProt Q15118); assay: Selectivity interaction (Kinase panel (Invitrogen)) EUB0000639a PDK1; conditions: at 200 nM
[8] = biological target: T3, Dual specificity mitogen-activated protein kinase kinase 5 (Homo sapiens) (UniProt Q13163); assay: Selectivity interaction (ActivX KiNativ screen (kinase selectivity in THP-1 cell lysates)) EUB0000639a MAP2K5; format: subcellular; conditions: lysate
T3 sequence (whole entry): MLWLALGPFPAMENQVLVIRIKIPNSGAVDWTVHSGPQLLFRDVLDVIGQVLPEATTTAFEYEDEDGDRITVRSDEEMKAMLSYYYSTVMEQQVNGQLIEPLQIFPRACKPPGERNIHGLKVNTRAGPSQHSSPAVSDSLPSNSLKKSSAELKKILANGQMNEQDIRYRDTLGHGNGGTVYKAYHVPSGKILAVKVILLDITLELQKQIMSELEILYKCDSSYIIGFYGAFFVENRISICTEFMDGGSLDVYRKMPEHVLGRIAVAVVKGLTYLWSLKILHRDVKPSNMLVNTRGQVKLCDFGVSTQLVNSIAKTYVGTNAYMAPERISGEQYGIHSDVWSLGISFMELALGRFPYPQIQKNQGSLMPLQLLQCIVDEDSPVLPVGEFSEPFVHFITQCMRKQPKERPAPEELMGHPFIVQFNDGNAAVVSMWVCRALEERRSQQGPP

[9] = biological target: T4, cGMP-dependent protein kinase 1 (Homo sapiens) (UniProt Q13976); assay: Selectivity interaction (KinomeScan (DiscoverX)) EUB0000092b PRKG1; conditions: at 10 µM
T4 sequence (whole entry): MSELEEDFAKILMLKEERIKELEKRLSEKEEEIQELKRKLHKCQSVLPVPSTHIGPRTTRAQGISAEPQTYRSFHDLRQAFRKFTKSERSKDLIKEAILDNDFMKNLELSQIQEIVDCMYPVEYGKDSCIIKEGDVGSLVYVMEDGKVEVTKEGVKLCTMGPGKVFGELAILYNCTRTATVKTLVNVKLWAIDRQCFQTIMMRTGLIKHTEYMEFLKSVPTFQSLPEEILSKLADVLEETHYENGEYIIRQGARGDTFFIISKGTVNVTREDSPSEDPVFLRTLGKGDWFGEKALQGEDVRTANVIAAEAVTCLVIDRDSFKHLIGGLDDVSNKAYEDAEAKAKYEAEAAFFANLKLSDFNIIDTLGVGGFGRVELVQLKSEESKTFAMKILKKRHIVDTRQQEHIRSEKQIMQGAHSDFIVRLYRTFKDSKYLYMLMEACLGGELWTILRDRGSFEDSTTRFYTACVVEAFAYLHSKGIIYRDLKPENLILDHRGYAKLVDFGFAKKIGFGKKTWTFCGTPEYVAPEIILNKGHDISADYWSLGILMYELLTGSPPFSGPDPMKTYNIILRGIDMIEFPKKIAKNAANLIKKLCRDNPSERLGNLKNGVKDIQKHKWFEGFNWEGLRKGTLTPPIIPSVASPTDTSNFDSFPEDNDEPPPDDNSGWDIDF

[10] = biological target: Mitogen-activated protein kinase kinase kinase 10 (Homo sapiens) (UniProt Q02779); assay: Selectivity interaction (KinomeScan (DiscoverX)) EUB0000092b MAP3K10; conditions: at 10 µM
Sequence of Mitogen-activated protein kinase kinase kinase 10 (Homo sapiens) (Q02779 whole entry, looked up): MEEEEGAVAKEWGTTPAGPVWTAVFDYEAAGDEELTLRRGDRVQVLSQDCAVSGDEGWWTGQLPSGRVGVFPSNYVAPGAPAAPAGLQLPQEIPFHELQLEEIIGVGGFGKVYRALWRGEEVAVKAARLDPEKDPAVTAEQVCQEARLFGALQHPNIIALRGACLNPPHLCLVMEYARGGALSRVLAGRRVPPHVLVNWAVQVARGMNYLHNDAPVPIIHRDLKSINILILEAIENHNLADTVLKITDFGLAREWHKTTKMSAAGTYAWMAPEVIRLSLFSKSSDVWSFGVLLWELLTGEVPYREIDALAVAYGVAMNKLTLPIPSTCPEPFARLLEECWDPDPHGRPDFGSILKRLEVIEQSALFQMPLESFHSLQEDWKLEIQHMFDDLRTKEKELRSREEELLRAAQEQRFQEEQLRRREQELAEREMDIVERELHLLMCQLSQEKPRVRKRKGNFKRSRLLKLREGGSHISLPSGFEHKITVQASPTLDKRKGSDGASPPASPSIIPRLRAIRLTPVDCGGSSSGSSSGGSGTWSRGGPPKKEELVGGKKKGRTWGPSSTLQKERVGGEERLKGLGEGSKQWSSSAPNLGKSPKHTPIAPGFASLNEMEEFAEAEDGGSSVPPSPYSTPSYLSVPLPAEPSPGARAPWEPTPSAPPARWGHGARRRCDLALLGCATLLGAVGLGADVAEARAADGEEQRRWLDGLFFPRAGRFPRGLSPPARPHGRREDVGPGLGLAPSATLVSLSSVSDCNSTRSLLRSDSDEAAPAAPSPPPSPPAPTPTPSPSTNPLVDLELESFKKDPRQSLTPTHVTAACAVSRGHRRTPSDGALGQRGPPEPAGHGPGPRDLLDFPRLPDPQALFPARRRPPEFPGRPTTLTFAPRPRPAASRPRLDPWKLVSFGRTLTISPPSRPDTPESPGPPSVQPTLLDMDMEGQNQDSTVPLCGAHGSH

## Cc1cc(F)c(C(=O)Nc2cccc(-c3nncn3C(C)C)n2)cc1-n1cnc(C2CC2)c1
[1]
  % of control: 90%

## Nc1cnc(N2CCc3cc(S(=O)(=O)Nc4c(F)cc(Cl)cc4F)cc(N4CCCC4=O)c32)nc1 [TP-020n]
[2]
  % of control: 86%

## O=C(NOC[C@H](O)CO)c1ccc(F)c(F)c1Nc1ccc(I)cc1F
[3]
  % of control: 100%
[4]
  % of control: 100%

## COc1cc(Nc2nc(C)cc(-c3cnn4nc(OC)ccc34)n2)cc(C(F)(F)F)c1
Focal adhesion kinase 1
  % of control: 86%

## CNC(=O)Nc1ccc(-c2nc(N3CC4CCC(C3)O4)c3cnn(C4CCC5(CC4)OCCO5)c3n2)cc1
[5]
  % of control: 100%
[6]
  % of inhibition: 3%

## CC[C@@H]1[C@H](F)C(=O)N[C@@H]1COc1nccc2cc(C(N)=O)c(OC)cc12 [ZIMLOVISERTIB]
[7]
  % of inhibition: 15.8%
[8]; at 0.01 µM
  % of inhibition: 4.3%
[8]; at 0.04 µM
  % of inhibition: -11.1%
[8]; at 0.2 µM
  % of inhibition: -18.3%
[8]; at 1 µM
  % of inhibition: -7.3%
[8]; at 5 µM
  % of inhibition: -18.8%

## CCC(=O)N1CCN(c2ccc(-n3c(=O)ccc4cnc5ccc(-c6cnc7ccccc7c6)cc5c43)cc2C(F)(F)F)CC1
[9]
  % of control: 86%
[10]
  % of control: 99%
